ChEMBL document CHEMBL5120945, “First-in-Class Allosteric Inhibitors of DNMT3A Disrupt Protein-Protein Interactions and Induce Acute Myeloid Leukemia Cell Differentiation” (J Med Chem, 2022)
Calls of active or inactive are those of the source.

Key:
[1] = target: T1, DNMT3A2/3L complex (Homo sapiens) (UniProt Q9Y6K1+Q9UJW3); assay: Inhibition of wild type full length recombinant human DNMT3A expressed in NiCo21(DE3) competent Escherichia coli cells to DNMT3L (unknown origin) protein-protein interaction
T1 sequence (Q9UJW3 whole entry, looked up): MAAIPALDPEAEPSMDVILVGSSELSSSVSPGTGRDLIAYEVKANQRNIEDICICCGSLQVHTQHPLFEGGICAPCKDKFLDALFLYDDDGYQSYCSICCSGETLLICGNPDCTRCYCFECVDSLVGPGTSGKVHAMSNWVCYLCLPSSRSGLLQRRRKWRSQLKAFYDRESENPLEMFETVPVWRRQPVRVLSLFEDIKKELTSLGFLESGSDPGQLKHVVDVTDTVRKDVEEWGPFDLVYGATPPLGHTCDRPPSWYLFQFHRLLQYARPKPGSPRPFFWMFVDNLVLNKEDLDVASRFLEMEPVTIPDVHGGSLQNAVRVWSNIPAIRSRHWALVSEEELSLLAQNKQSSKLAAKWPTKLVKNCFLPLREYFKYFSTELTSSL
T1 sequence (Q9Y6K1 whole entry, looked up): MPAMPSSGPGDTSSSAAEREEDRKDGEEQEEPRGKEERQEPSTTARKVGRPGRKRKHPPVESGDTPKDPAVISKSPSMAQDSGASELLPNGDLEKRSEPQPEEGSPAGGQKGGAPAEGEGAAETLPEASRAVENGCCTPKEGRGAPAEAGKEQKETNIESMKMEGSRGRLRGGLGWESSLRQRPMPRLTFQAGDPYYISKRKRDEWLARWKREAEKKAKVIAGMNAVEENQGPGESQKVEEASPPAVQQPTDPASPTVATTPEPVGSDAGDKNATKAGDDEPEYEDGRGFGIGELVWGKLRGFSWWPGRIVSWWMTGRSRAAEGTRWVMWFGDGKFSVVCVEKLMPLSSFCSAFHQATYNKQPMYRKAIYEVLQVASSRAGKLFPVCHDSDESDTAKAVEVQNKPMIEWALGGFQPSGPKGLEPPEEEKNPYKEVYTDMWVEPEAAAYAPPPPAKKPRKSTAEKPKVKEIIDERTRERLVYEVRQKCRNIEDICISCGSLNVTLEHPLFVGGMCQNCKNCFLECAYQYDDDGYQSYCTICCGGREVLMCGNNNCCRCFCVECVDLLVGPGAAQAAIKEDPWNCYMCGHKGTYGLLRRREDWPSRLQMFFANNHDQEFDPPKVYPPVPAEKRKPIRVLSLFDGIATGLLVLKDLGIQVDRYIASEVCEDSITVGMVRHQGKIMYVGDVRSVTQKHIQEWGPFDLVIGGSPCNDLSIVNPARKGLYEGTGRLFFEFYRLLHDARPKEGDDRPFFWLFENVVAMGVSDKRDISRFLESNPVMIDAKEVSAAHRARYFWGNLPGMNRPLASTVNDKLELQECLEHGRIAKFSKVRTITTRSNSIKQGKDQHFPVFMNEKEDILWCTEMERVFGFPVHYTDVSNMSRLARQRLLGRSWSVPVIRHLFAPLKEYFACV

[2] = target: T1, DNMT3A2/3L complex (Homo sapiens); assay: Inhibition of DNMT3L-mediated wild type full length recombinant human DNMT3A homo tetramer expressed in NiCo21(DE3) competent Escherichia coli cells to DNMT3L protein-protein interaction assessed as DNA methylation using poly dl-dC as substrate incubated for 1 hr
[3] = target: T1, DNMT3A2/3L complex (Homo sapiens); assay: […] of wild type full length recombinant human DNMT3A expressed in NiCo21(DE3) competent Escherichia coli cells to DNMT3L protein-protein interaction
[4] = target: DNA (cytosine-5)-methyltransferase 3A (Homo sapiens) (UniProt Q9Y6K1); assay: Inhibition of H3 peptide activated human full length DNMT3A expressed in NiCo21(DE3) competent Escherichia coli cells at 60 uM
DNA (cytosine-5)-methyltransferase 3A (Homo sapiens), sequence (Q9Y6K1 whole entry, looked up): as above

[5] = target: Lysine-specific demethylase 5A (Homo sapiens) (UniProt P29375); assay: Inhibition of KDM5A (1 to 797) activity using 21-mer biotinylated H3K4me3 peptide measured after 40 mins by TR-FRET assay
Lysine-specific demethylase 5A (Homo sapiens), sequence (P29375 whole entry): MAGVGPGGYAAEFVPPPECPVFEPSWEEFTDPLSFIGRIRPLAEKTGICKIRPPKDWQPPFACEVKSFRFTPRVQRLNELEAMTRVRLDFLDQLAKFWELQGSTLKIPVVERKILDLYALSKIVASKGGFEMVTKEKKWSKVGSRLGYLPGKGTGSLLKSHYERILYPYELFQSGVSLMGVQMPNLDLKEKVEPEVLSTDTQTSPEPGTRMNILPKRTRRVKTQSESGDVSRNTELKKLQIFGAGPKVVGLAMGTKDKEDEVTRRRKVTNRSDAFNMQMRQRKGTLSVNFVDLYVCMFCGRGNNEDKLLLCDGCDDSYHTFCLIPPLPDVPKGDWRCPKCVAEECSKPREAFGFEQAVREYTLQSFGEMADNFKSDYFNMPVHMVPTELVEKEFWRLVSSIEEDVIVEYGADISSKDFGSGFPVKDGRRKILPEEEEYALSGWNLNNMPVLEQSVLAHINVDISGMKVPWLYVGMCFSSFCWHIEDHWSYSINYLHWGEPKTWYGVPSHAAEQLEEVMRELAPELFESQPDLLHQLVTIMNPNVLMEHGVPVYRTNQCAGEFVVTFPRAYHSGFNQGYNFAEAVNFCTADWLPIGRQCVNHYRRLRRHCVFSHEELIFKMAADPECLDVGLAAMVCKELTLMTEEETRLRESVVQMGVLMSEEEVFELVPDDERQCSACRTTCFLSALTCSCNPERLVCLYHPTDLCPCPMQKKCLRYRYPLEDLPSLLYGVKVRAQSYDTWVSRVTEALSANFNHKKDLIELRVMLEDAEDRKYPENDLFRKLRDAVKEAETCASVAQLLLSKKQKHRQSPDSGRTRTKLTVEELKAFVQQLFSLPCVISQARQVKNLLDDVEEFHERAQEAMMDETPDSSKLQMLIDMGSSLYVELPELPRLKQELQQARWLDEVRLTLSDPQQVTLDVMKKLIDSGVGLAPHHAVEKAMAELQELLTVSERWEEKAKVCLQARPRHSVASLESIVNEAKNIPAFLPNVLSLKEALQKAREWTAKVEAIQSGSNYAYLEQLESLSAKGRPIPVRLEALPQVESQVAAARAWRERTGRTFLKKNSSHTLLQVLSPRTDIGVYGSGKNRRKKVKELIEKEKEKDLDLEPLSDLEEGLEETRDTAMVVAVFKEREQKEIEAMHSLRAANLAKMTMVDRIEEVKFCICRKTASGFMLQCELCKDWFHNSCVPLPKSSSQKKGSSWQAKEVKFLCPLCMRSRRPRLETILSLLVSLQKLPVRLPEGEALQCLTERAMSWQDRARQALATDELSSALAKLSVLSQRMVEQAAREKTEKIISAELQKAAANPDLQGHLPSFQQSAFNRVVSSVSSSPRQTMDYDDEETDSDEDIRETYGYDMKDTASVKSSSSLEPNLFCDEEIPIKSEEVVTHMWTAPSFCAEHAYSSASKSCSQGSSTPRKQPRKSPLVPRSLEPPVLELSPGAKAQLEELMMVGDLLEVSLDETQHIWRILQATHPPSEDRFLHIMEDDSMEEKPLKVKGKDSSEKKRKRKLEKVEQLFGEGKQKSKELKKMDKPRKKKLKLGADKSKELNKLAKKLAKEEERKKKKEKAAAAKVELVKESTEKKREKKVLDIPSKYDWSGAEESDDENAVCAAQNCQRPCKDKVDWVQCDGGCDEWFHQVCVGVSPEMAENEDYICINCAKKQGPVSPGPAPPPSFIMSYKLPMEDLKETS

[6] = target: DNA (cytosine-5)-methyltransferase 3A (Homo sapiens) (UniProt Q9Y6K1); assay: Inhibition of wild type full length recombinant human DNMT3A expressed in NiCo21(DE3) competent Escherichia coli cells assessed as decrease the fluorescence anisotrophy of DNA bound protein using FAM/TGGATATCTAGGGGCGCTATGATAT as substrate incubated for 5 mins by microplate reader based fluorescence anisotropy assay
Homo sapiens [7] = organism: Homo sapiens; assay: Inhibition of wild type full length recombinant human DNMT3A expressed in NiCo21(DE3) competent Escherichia coli cells to human TDG protein protein interaction using FAM/TGGATATCTAGGGGCGCTATGATAT as substrate incubated for 5 mins by microplate reader based fluorescence anisotropy assay; conditions: DDE = dose-dependent effect
Homo sapiens [8] = organism: Homo sapiens; assay: Inhibition of wild type full length recombinant human DNMT3A expressed in NiCo21(DE3) competent Escherichia coli cells to human p53 protein-protein interaction using FAM/TGGATATCTAGGGGCGCTATGATAT as substrate incubated for 5 mins by microplate reader based fluorescence anisotropy assay; conditions: DDE = dose-dependent effect
Homo sapiens [9] = organism: Homo sapiens; assay: Inhibition of full length recombinant human DNMT3A R729 mutant tetramer expressed in NiCo21(DE3) competent Escherichia coli cells
Homo sapiens [10] = organism: Homo sapiens; assay: Inhibition of full length recombinant human DNMT3A E733 mutant tetramer expressed in NiCo21(DE3) competent Escherichia coli cells
Homo sapiens [11] = organism: Homo sapiens; assay: Inhibition of full length recombinant human DNMT3A R736 mutant tetramer expressed in NiCo21(DE3) competent Escherichia coli cells
Homo sapiens [12] = organism: Homo sapiens; assay: Inhibition of full length recombinant human DNMT3A R729A mutant tetramer expressed in NiCo21(DE3) competent Escherichia coli cells to DNMT3L (unknown origin) protein-protein interaction preincubated for 1 hr
Homo sapiens [13] = organism: Homo sapiens; assay: Inhibition of full length recombinant human DNMT3A E733A mutant tetramer expressed in NiCo21(DE3) competent Escherichia coli cells to DNMT3L (unknown origin) protein-protein interaction preincubated for 1 hr
Homo sapiens [14] = organism: Homo sapiens; assay: Inhibition of full length recombinant human DNMT3A R736A mutant tetramer expressed in NiCo21(DE3) competent Escherichia coli cells to DNMT3L (unknown origin) protein-protein interaction preincubated for 1 hr
Homo sapiens [15] = organism: Homo sapiens; assay: Inhibition of full length recombinant human DNMT3A R771A mutant tetramer expressed in NiCo21(DE3) competent Escherichia coli cells to DNMT3L (unknown origin) protein-protein interaction preincubated for 1 hr
Homo sapiens [16] = organism: Homo sapiens; assay: Inhibition of full length recombinant human DNMT3A R771A mutant expressed in NiCo21(DE3) competent Escherichia coli cells to DNMT3L (unknown origin) protein-protein interaction using FAM-DNA as substrate by fluorescence anisotropy assay
Homo sapiens [17] = organism: Homo sapiens; assay: Inhibition of full length recombinant human DNMT3A R882H mutant expressed in NiCo21(DE3) competent Escherichia coli cells to DNMT3L (unknown origin) protein-protein interaction
Homo sapiens [18] = organism: Homo sapiens; assay: Inhibition of full length recombinant human DNMT3A R882H mutant expressed in NiCo21(DE3) competent Escherichia coli cells
Homo sapiens [19] = organism: Homo sapiens; assay: Inhibition of full length recombinant human DNMT3A R882H mutant expressed in NiCo21(DE3) competent Escherichia coli cells to DNMT3L (unknown origin) using FAM-DNA as substrate
Homo sapiens [20] = organism: Homo sapiens; assay: Inhibition of full length recombinant human DNMT3A R882H mutant expressed in NiCo21(DE3) competent Escherichia coli cells to human p53
Homo sapiens [21] = organism: Homo sapiens; assay: Inhibition of full length recombinant human DNMT3A R882H mutant expressed in NiCo21(DE3) competent Escherichia coli cells to human TDG
HL-60 [22] = assay: Induction of apoptosis in human HL-60 cells measured after 72 hrs by annexinVstaining based flow cytometry; format: functional, cell-based; conditions: dose 7-12 µM, DDE = dose-dependent effect
K562 [23] = assay: Induction of apoptosis in human K562 cells measured after 72 hrs by annexinV staining based flow cytometry; format: functional, cell-based; conditions: dose 7-12 µM, DDE = dose-dependent effect
MV4-11 [24] = assay: Induction of apoptosis in human MV4-11 cells measured after 72 hrs by annexinVstaining based flow cytometry; format: functional, cell-based; conditions: dose 7-12 µM, DDE = dose-dependent effect
OCI-AML-3 [25] = assay: Induction of apoptosis in human OCI-AML-3 cells measured after 72 hrs by annexinV staining based flow cytometry; format: functional, cell-based; conditions: dose 7-12 µM, DDE = dose-dependent effect
Kasumi 1 [26] = assay: Induction of apoptosis in human Kasumi 1 cells measured after 72 hrs by annexinV staining based flow cytometry; format: functional, cell-based; conditions: dose 7-12 µM, DDE = dose-dependent effect
THP-1 [27] = assay: Induction of apoptosis in human THP-1 cells measured after 72 hrs by annexinV staining based flow cytometry; format: functional, cell-based; conditions: dose 7-12 µM, DDE = dose-dependent effect
MOLM-13 [28] = assay: Induction of apoptosis in human MOLM-13 cells measured after 72 hrs by annexinV staining based flow cytometry; format: functional, cell-based; conditions: dose 7-12 µM, DDE = dose-dependent effect
MV4-11 [29] = assay: Induction of myeloid differentiation in human MV4-11 cells assessed as increase in CD11b level measured after 72 hrs by propidium iodide staining based flow cytometry; format: functional, cell-based; conditions: dose 5-10 µM, DDE = dose-dependent effect
MOLM-13 [30] = assay: Induction of myeloid differentiation in human MOLM-13 cells assessed as increase in CD11b level measured after 72 hrs by propidium iodide staining based flow cytometry; format: functional, cell-based; conditions: dose 5-10 µM, DDE = dose-dependent effect
THP-1 [31] = assay: Induction of myeloid differentiation in human THP-1 cells assessed as increase in CD11b level measured after 72 hrs by propidium iodide staining based flow cytometry; format: functional, cell-based; conditions: dose 5-10 µM, DDE = dose-dependent effect
OCI-AML-3 [32] = assay: Induction of DNA methylation in human OCI-AML-3 cells at 5 uM by ELISA; format: functional, cell-based; conditions: time 3.0 day, TDE = time-dependent effect
K562 [33] = assay: Induction of DNA methylation in human K562 cells at 5 uM by ELISA; format: functional, cell-based; conditions: time 3.0 day, TDE = time-dependent effect
OCI-AML-3 [34] = assay: Induction of myeloid differentiation in human OCI-AML-3 cells assessed as increase in CD11b level measured after 72 hrs by propidium iodide staining based flow cytometry; format: functional, cell-based; conditions: dose 5-10 µM, DDE = dose-dependent effect
Kasumi 1 [35] = assay: Induction of myeloid differentiation in human Kasumi 1 cells assessed as increase in CD11b level measured after 72 hrs by propidium iodide staining based flow cytometry; format: functional, cell-based; conditions: DDE = dose-dependent effect
HL-60 [36] = assay: Induction of myeloid differentiation in human HL-60 cells assessed as increase in CD11b level measured after 72 hrs by propidium iodide staining based flow cytometry; format: functional, cell-based; conditions: DDE = dose-dependent effect
K562 [37] = assay: Induction of myeloid differentiation in human K562 cells assessed as increase in CD11b level measured after 72 hrs by propidium iodide staining based flow cytometry; format: functional, cell-based; conditions: DDE = dose-dependent effect
HL-60 [38] = assay: Induction of DNA methylation in human HL-60 cells at 5 uM by ELISA; format: functional, cell-based; conditions: time 3.0 day, TDE = time-dependent effect
[39] = target: T1, DNMT3A2/3L complex (Homo sapiens); assay: Inhibition of DNMT3L-mediated wild type full length recombinant human DNMT3A hetero tetramer expressed in NiCo21(DE3) competent Escherichia coli cells to DNMT3L protein-protein interaction assessed as DNA methylation using poly dl-dC as substrate incubated for 1 hr

COc1ccc(C2=NN(C3CCCCCC3)C(=O)[C@@H]3CC=CC[C@H]23)cc1OCCCCOc1ccc(-c2nnn[nH]2)cc1
active: inhibition [1] | inhibition [2] | Activity [3] | inhibition [4] | inhibition [5] | inhibition [6] | inhibition (Homo sapiens [7]) Dde | inhibition (Homo sapiens [8]) Dde | inhibition (Homo sapiens [9]) | inhibition (Homo sapiens [10]) | inhibition (Homo sapiens [11]) | inhibition (Homo sapiens [12]) | inhibition (Homo sapiens [13]) | inhibition (Homo sapiens [14]) | inhibition (Homo sapiens [15]) | inhibition (Homo sapiens [16]) | inhibition (Homo sapiens [17]) | inhibition (Homo sapiens [18]) | inhibition (Homo sapiens [19]) | inhibition (Homo sapiens [20]) | inhibition (Homo sapiens [21]) | Activity (HL-60 [22]) Dde | Activity (K562 [23]) Dde | Activity (MV4-11 [24]) Dde | Activity (OCI-AML-3 [25]) Dde | Activity (Kasumi 1 [26]) Dde | Activity (THP-1 [27]) Dde | Activity (MOLM-13 [28]) Dde | Activity (MV4-11 [29]) Dde | Activity (MOLM-13 [30]) Dde | Activity (THP-1 [31]) Dde | Activity (OCI-AML-3 [32]) Tde | Activity (K562 [33]) Tde | Activity (OCI-AML-3 [34]) Dde | Activity (Kasumi 1 [35]) Dde | Activity (HL-60 [36]) Dde | Activity (K562 [37]) Dde | Activity (HL-60 [38]) Tde | inhibition [39]

COc1ccc(C2=NN(C3CCCCCC3)C(=O)C2(C)C)cc1OCCCCOc1ccc(-c2nn[nH]n2)cc1
active: inhibition [1] | Activity [3] | inhibition [4] | inhibition [5] | inhibition [6] | inhibition (Homo sapiens [7]) Dde | inhibition (Homo sapiens [8]) Dde | inhibition (Homo sapiens [17]) | inhibition (Homo sapiens [18]) | inhibition (Homo sapiens [19]) | inhibition (Homo sapiens [20]) | inhibition (Homo sapiens [21])
